According to publication PMC10783051 (Microbiology Spectrum, 2023):

Tested on: Streptomyces venezuelae ATCC 10712
Assay: In planta co-inoculation on tomato roots, UPLC-MS of rhizosphere extracts
Conditions: tomato roots on Hoagland agar, 7 days at 22°C, UPLC-MS of agar near the roots, four biological replicates
Method: For the in planta studies, tomato seeds (Solanum lycopersicum var. Moneymaker) were sterilized following the protocol described by ([26]). Briefly, tomato seeds were primarily sterilized in 70% ethanol (vol/vol) by gently shaking for 2 min. Further, the ethanol was removed and the seeds were added to 50 mL of the sterilization solution [4.5 mL of bleach containing 9.5% (vol/vol) of active chlorine, 0.01 g of Tween 80, and 45.5 mL of sterile water] and gently shaken for 10 min. Seeds were thereafter washed 10 times with water to eliminate sterilization solution residues. […]
All UPLC-MS analyses were performed using an Agilent 1290 Infinity II coupled with a diode array detector and a mass detector (Jet Stream ESI-Q-TOF 6530) in positive mode with the parameters set up as follows: capillary voltage of 3.5 kV, nebulizer pressure of 35 lb/in^2, drying gas of 8 L/min, drying gas temperature of 300°C, flow rate of sheath gas of 11 L/min, sheath gas temperature of 350°C, fragmentor voltage of 175 V, skimmer voltage of 65 V, and octopole radiofrequency of 750 V. Accurate mass spectra were recorded in the m/z range of 300–1,700. […]

iturin
linear forms in rhizosphere extracts upon co-inoculation of Bv with Sv: high proportion of linear
